# Measured values taken from the NIST ThermoML archive (doi:10.1021/je900460m).
# Numbers after ± are expanded uncertainties.
smiles,measurement,setting,value
CCCCCCn1cc[n+](C)c1.N#C[S-] [1-hexyl-3-methylimidazolium thiocyanate],mass density,"298.15 K, 101.33 kPa, Liquid, Pycnometric method",1056.92 ± 11 kg/m3
same,viscosity,"298.15 K, Liquid, Capillary tube (Ostwald / Ubbelohde) method",93.62 ± 3.1 mPa·s
same,Glass transition temperature,"Glass, visual observation",-83.2 ± 3 °C
